Data taken from patent US6828338B2, “Substituted polycyclic aryl and heteroaryl pyridines useful for selective inhibition of the coagulation cascade” (Pharmacia Corporation, priority 2000, dated 2004).

Molecular target: T1, Human factor Xa (Homo sapiens, UniProt P00742)
T1 construct: leads from XII to XIIa to XIa to IXa and to the conversion of X to Xa; purchased Enzyme Research Laboratories, South Bend Ind
Assay: Xa Assay
Type: biochemical
Method: Human factor Xa (0.3 nM) and 0.15 mM N-a-Benzyloxycarbonyl-D-arginyl-L-glycyl-L-arginine-p-nitroaniline-dihydrochloride (S-2765) are added to a 96-well assay plate containing either inhibitor or buffer (50 mM Tris-HCl, pH 8.0, 100 mM NaCl, 0.1% BSA). The reaction, in a final volume of 100 ul is measured immediately at 405 nm to determine background absorbance. The plate is incubated at room temperature for 60 min, at which time the rate of hydrolysis of the substrate is measured by monitoring the reaction at 405 nm for the release of p-nitroaniline. Percent inhibition of Xa activity is calculated from OD405 nm value from the experimental and control sample.
Recombinant soluble TF, consisting of amino acids 1-219 of the mature protein sequence was expressed in E. coli and purified using a Mono Q Sepharose FPLC. Recombinant human VIIa was purchased from American Diagnostica, Greenwich Conn. and chromogenic substrate N-Methylsulfonyl-D-phe-gly-arg-p-nitroaniline was prepared by American Peptide Company, Inc., Sunnyvale, Calif. Factor Xa was obtained from Enzyme Research Laboratories, South Bend Ind., thrombin from Calbiochem, La Jolla, Calif., and trypsin and L-BAPNA from Sigma, St. Louis Mo. The chromogenic substrates S-2765 and S-2238 were purchased from Chromogenix, Sweden.

T1 sequence (P00742 235-488 limits assumed): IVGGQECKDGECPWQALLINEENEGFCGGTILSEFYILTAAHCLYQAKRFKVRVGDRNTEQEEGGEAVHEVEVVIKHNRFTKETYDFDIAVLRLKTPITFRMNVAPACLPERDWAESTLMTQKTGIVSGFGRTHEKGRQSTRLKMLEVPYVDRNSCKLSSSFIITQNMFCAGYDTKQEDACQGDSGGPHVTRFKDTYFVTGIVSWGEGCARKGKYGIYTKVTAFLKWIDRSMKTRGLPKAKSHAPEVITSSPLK
T1 sequence (P00742 41-179 limits assumed): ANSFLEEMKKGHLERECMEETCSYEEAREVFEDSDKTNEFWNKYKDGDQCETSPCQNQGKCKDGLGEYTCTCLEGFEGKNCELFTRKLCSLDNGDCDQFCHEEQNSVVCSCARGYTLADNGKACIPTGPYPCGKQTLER

## CC(C)Nc1ccc(-c2cc(N)cc(N)c2)c(CC(=O)NCc2ccc(C(=N)N)cc2)[n+]1[O-] [Example 7]
  IC50: > 100 µM

## CC(C)Nc1ccc(/C=C/c2ccccc2)c(CC(=O)NCc2ccc(C(=N)N)cc2)[n+]1[O-] [Example 12]
  IC50: > 100 µM
